The source of these data is patent US8124626B2, “Methods of treating inflammations and infections with pyridinium salts” (Mycosol, Inc., priority 2007, dated 2012).

In data set [1] the test system is Pyricularia oryzae. The settings on record: Plant relevance: Rice; 18° C. for 7 days, optical density 405 nm.
Data set [2] deals with Colletotrichum lagenarium. The experiment in a line: Plant relevant mold panel, microtiter growth inhibition. The format is cell-based. The settings on record: Plant relevance: Mellons; 18° C. for 7 days, optical density 405 nm.
Data set [3] relates to Septonia tritici. The description is as above. The format is cell-based. The settings on record: Plant relevance: Wheat Leaf; 18° C. for 7 days, optical density 405 nm.
Data set [4] relates to Botrytis cinerea. The description is as above. It is filed as cell-based. The settings on record: Plant relevance: Vegetable; 18° C. for 7 days, optical density 405 nm.
The test system of data set [5] is Rhizoctonia solani. The data set is described as above. The settings on record: Plant relevance: Rice Sheath; 18° C. for 7 days, optical density 405 nm. The format is cell-based.
Data set [6] concerns Pyrenophora teres. The description is as above. The format is cell-based. The settings on record: Plant relevance: Barley; 18° C. for 7 days, optical density 405 nm.
Data set [7] has as its system roundworms, threadworms, and whipworms. The settings on record: reported; U.S. Pat. No. 3,075,975 and 3,085,935; cited from earlier work.
In data set [8] the test system is Phytophthora infestans. The settings on record: Plant relevance: Tomato; 18° C. for 7 days, optical density 405 nm.
Data set [9] relates to Candida tropicalis. The settings on record: Mueller-Hinton agar, 24 hours at 35° C.
In data set [10] the test system is Fusarium solani. The settings on record: Mueller-Hinton agar, 24 hours at 35° C.
For data set [11], the system named is Pasturella multocida. The settings on record: Mueller-Hinton agar, 24 hours at 35° C.
In data set [12] the test system is Rhizopus arrihizus. The settings on record: Mueller-Hinton agar, 24 hours at 35° C.
Data set [13] deals with Streptococcus pyogenes. The settings on record: Mueller-Hinton agar, 24 hours at 35° C.
Data set [14] deals with Trichophyton mentagrophyt. The settings on record: Mueller-Hinton agar, 24 hours at 35° C.
Data set [15] deals with Streptococcus faecalis. The settings on record: Mueller-Hinton agar, 24 hours at 35° C.
Data set [16] deals with Saccharomyces cervisciae. The settings on record: Mueller-Hinton agar, 24 hours at 35° C.
Data set [17] deals with Cryptococcus neoformans. The settings on record: Mueller-Hinton agar, 24 hours at 35° C.
Data set [18] deals with Streptococcus algalactia. The settings on record: Mueller-Hinton agar, 24 hours at 35° C.
Data set [19] deals with Staphylococcus aureus. The settings on record: Mueller-Hinton agar, 24 hours at 35° C.
Data set [20] concerns Aspergillus flavus. The settings on record: Mueller-Hinton agar, 24 hours at 35° C.
In data set [21] the test system is Epidermophyton floccsum. The settings on record: Mueller-Hinton agar, 24 hours at 35° C.
Data set [22] deals with Trichophyton equinium. The settings on record: Mueller-Hinton agar, 24 hours at 35° C.
For data set [23] the following is noted: as compared to the iodide salt.
Data set [24] relates to Vibrio cholerae. The settings on record: Mueller-Hinton agar, 24 hours at 35° C.
Data set [25] has as its system Bordella bronchiseptica. The settings on record: Mueller-Hinton agar, 24 hours at 35° C.
Data set [26] deals with Microsporidium gypseum. The settings on record: Mueller-Hinton agar, 24 hours at 35° C.
In data set [27] the test system is Candida albicans. The settings on record: Mueller-Hinton agar, 24 hours at 35° C.
In data set [28] the test system is E. coli. The settings on record: Mueller-Hinton agar, 24 hours at 35° C.
In data set [29] the test system is Trichophyton rubrum. The settings on record: Mueller-Hinton agar, 24 hours at 35° C.
Data set [30] has as its system Aspergillus fumigatus. The settings on record: Mueller-Hinton agar, 24 hours at 35° C.
The test system of data set [31] is Microsporidium canis. The settings on record: Mueller-Hinton agar, 24 hours at 35° C.
The test system of data set [32] is Pseudomonas aerugenosa. The settings on record: Mueller-Hinton agar, 24 hours at 35° C.

As for `CC[n+]1c(/C=C/c2ccc(N3CCCC3)cc2)cccc1/C=C/c1ccc(N2CCCC2)cc1.[I-]` [Stilbazium iodide], the IC90 amounted to 8 ppm a.i in data set [1]; 31 ppm a.i in data set [2]; 2 ppm a.i in data set [3]; 0.5 ppm a.i in [4]; 2 ppm a.i in data set [5]; 31 ppm a.i in [6]. The compound further displayed an IC90 in [8] of 2 ppm a.i. In addition, the anthelmintic effectiveness entry in [7] was “effective against roundworms, threadworms, and whipworms”.
“1-Ethyl-(E,E)-2,6-bis[2-[4-(pyrrolidinyl)phenyl]ethenyl]pyridinium Chloride [formula I]”: the MIC was under 0.4 µg/mL in data set [9]; under 0.4 µg/mL in [10]; 3.0 µg/mL in data set [11]; 6.25 µg/mL in [12]; 1.0 µg/mL in data set [13]; 1.6 µg/mL in data set [14]. Further, the minimum inhibitory concentration (MIC) in data set [15] was 1.0 µg/mL; in data set [16], under 0.4 µg/mL; in data set [17] it was under 0.4 µg/mL; in [18], 1.0 µg/mL; in [19], 0.3 µg/mL; in data set [20] it was 6.25 µg/mL. For the same compound, the MIC in [21] is 1.6 µg/mL; in data set [22], 1.6 µg/mL; in [24] it was 10.0 µg/mL; in data set [25], 1.0 µg/mL; in data set [26], 1.6 µg/mL; in [27], under 0.006 µg/mL. The minimum inhibitory concentration (MIC) in data set [28] is over 100 µg/mL; in data set [29] it was 1.6 µg/mL; in [30], under 0.006 µg/mL; in data set [31], 1.6 µg/mL; in data set [32], over 100 µg/mL. Moreover, the stability result in [23] is “increased stability”.

Broadly, the MIC is the smallest concentration in the dilution series that meets the test's criterion for growth inhibition. Read a low MIC as inhibition by little substance.
